The assay addresses BRAF^V600E protein (Homo sapiens, UniProt P15056, V600E). Nature of the assay: HiBiT cellular BRAF V600E degradation assay. It is filed as cell-based. Particulars: 24 h incubation; for DC50: A375.10 cells (HiBiT tag knocked in at N-terminal of BRAF V600E), concentration at which 50% of total cellular BRAF V600E is degraded; for Emax: read-out: HiBit 24 h Emax. In general terms: With HiBiT, luminescence reflects the tagged protein that the partner subunit can reach.

Setting [1] is: A375.10 cells, Emax = amount of residual protein remaining in the cell after compound treatment.

Chain of BRAF^V600E protein (P15056 whole entry V600E): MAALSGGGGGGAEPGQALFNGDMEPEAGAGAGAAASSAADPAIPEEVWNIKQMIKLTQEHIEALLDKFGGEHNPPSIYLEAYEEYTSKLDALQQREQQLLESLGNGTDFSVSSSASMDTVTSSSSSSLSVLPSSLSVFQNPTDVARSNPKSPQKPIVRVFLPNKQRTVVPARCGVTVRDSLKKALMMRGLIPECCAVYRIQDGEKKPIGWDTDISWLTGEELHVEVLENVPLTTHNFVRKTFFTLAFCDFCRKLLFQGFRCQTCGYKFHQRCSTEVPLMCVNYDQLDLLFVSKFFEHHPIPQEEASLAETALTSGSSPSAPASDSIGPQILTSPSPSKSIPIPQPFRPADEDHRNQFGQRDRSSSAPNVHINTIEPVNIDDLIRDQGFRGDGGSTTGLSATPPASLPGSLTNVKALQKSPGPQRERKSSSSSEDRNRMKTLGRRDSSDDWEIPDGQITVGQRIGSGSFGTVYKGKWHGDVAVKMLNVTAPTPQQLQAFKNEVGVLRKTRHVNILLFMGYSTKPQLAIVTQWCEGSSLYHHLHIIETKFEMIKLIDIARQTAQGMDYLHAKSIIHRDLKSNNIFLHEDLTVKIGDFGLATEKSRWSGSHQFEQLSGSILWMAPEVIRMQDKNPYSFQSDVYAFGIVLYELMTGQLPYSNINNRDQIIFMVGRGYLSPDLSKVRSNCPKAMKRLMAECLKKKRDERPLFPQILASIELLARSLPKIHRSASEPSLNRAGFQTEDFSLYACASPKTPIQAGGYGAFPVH

As a reminder, the DC50 is the concentration giving 50% degradation. As a reminder, the Emax is the size of the effect at its maximum, as opposed to the concentration needed. `CCN(C)S(=O)(=O)Nc1ccc(F)c(C(=O)c2c[nH]c3ncc(-c4cnc(N5CCN(C(=O)CN6CCC(Nc7ccc8c(C9CCC(=O)NC9=O)nn(C)c8c7)CC6)CC5)nc4)cc23)c1F` (stereo not shown) [Example 28, 3-(2,6-dioxo-3-piperidyl)-6-[[1-[2-[4-[5-[3-[3-[[ethyl(methyl)sulfamoyl]amino]-2,6-difluoro-benzoyl]-1H-pyrrolo[2,3-b]pyridin-5-yl]pyrimidin-2-yl]piperazin-1-yl]-2-oxo-ethyl]-4-piperidyl]amino]-1-methyl-indazole] gave a DC50 of 5.81 nM. The Emax under setting [1] worked out at 12%.

The compound `CCN(C)S(=O)(=O)Nc1ccc(F)c(C(=O)c2c[nH]c3ncc(-c4ccc(N5CC6(CN(C(=O)CN7CCC(c8ccc(NC9CCC(=O)NC9=O)cc8)CC7)C6)C5)nc4)cc23)c1F` (stereo not shown) [Example A76, 5-[6-[2-[2-[4-[4-[(2,6-dioxopiperidin-3-yl)amino]phenyl]piperidin-1-yl]acetyl]-2,6-diazaspiro[3.3]heptan-6-yl]pyridin-3-yl]-3-[3-[[ethyl(methyl)sulfamoyl]amino]-2,6-difluorobenzoyl]-1H-pyrrolo[2,3-b]pyridine] returned a DC50 of 14.9 nM. Under setting [1], the Emax is 16.9%.

The compound `CCN(C)S(=O)(=O)Nc1ccc(F)c(C(=O)c2c[nH]c3ncc(-c4ccc(CN5CCN(C6CCN(C(=O)CN7CCC(c8ccc(NC9CCC(=O)NC9=O)cc8)CC7)CC6)CC5)cc4)cc23)c1F` (stereo not shown) [Example A13, 5-[4-[[4-[1-[2-[4-[4-[(2,6-Dioxopiperidin-3-yl)amino]phenyl]piperidin-1-yl]acetyl]piperidin-4-yl]piperazin-1-yl]methyl]phenyl]-3-[3-[[ethyl(methyl)sulfamoyl]amino]-2,6-difluorobenzoyl]-1H-pyrrolo[2,3-b]pyridine] displayed a half-maximal degradation concentration (DC50) of 91 nM. The maximum response (Emax) under setting [1] was 23%.

The compound `CCN(C)S(=O)(=O)Nc1ccc(F)c(C(=O)c2c[nH]c3ncc(-c4ccc(CN5CCN(C(=O)CN6CCN(c7ccc(NC8CCC(=O)NC8=O)cc7)CC6)CC5)cc4)cc23)c1F` (stereo not shown) [Example 95, 5-[4-[[4-[2-[4-[4-[(2,6-dioxo-3-piperidyl)amino]phenyl]piperazin-1-yl]acetyl]piperazin-1-yl]methyl]phenyl]-3-[3-[[ethyl(methyl)sulfamoyl]amino]-2,6-difluoro-benzoyl]-1H-pyrrolo[2,3-b]pyridine] registered a DC50 of 30.4 nM. Moreover, under setting [1], the maximal effect (Emax) came to 12.8%.

`CCN(C)S(=O)(=O)Nc1cccc(C(=O)c2c[nH]c3ncc(-c4cnc(N5CCN(C(=O)CC6(O)CCN(c7ncc(NC8CCC(=O)NC8=O)cc7F)CC6)CC5)nc4)cc23)c1F` (stereo not shown) [Example 104, 5-[2-[4-[2-[1-[5-[(2,6-dioxo-3-piperidyl)amino]-3-fluoro-2-pyridyl]-4-hydroxy-4-piperidyl]acetyl]piperazin-1-yl]pyrimidin-5-yl]-3-[3-[[ethyl(methyl)sulfamoyl]amino]-2-fluoro-benzoyl]-1H-pyrrolo[2,3-b]pyridine] had a DC50 of 3.37 nM. Besides, the maximum response (Emax) under setting [1] was 10.8%.

The compound `CCN(C)S(=O)(=O)Nc1ccc(F)c(C(=O)c2c[nH]c3ncc(-c4cnc(N5CCC(NCC(=O)N6CCC(c7ccc(OC8CCC(=O)NC8=O)cc7)CC6)CC5)nc4)cc23)c1F` (stereo not shown) [Example A102, 5-[2-[4-[[2-[4-[4-(2,6-Dioxopiperidin-3-yl)oxyphenyl]piperidin-1-yl]-2-oxoethyl]amino]piperidin-1-yl]pyrimidin-5-yl]-3-[3-[[ethyl(methyl)sulfamoyl]amino]-2,6-difluorobenzoyl]-1H-pyrrolo[2,3-b]pyridine;formic acid] displayed a DC50 of 33 nM. For the same compound, under setting [1], the Emax is 12%.

`CCN(C)S(=O)(=O)Nc1ccc(F)c(C(=O)c2c[nH]c3ncc(-c4cnc(N5CCN(C(=O)CN6CCC(c7ccc(N[C@H]8CCC(=O)NC8=O)cc7)CC6)CC5)nc4)cc23)c1F` (single isomer, unassigned) [Example A111] yielded a DC50 of 4 nM. For the same compound, the Emax under setting [1] came to 7%.

`CCN(C)S(=O)(=O)Nc1ccc(F)c(C(=O)c2c[nH]c3ncc(-c4cnc(N5CCN(C(=O)CC6(O)CCN(c7ccc(NC8CCC(=O)NC8=O)cc7C(F)F)CC6)CC5)nc4)cc23)c1F` (stereo not shown) [Example 204, 5-[2-[4-[2-[1-[2-(difluoromethyl)-4-[(2,6-dioxo-3-piperidyl)amino]phenyl]-4-hydroxy-4-piperidyl]acetyl]piperazin-1-yl]pyrimidin-5-yl]-3-[3-[[ethyl(methyl)sulfamoyl]amino]-2,6-difluoro-benzoyl]-1H-pyrrolo[2,3-b]pyridine] yielded a DC50 of 3.8 nM. Further, the maximal response (Emax) under setting [1] was determined as 8.6%.

For `CCN(C)S(=O)(=O)Nc1ccc(F)c(C(=O)c2c[nH]c3ncc(-c4ccc(N5CCN(C(=O)CC6(O)CCN(c7ccc(N8CCC(=O)NC8=O)cc7F)CC6)CC5)cc4)cc23)c1F` [Example 169, 5-[4-[4-[2-[1-[4-(2,4-dioxohexahydropyrimidin-1-yl)-2-fluoro-phenyl]-4-hydroxy-4-piperidyl]acetyl]piperazin-1-yl]phenyl]-3-[3-[[ethyl(methyl)sulfamoyl]amino]-2,6-difluoro-benzoyl]-1H-pyrrolo[2,3-b]pyridine], the half-maximal degradation concentration (DC50) is 2.82 nM. Under setting [1], the Emax amounted to 7.34%.

For the compound `CCN(C)S(=O)(=O)Nc1ccc(F)c(C(=O)c2c[nH]c3ncc(-c4ccc(C5CCN(C(=O)CN6CCC(c7ccc(NC8CCC(=O)NC8=O)cc7)CC6)CC5)cc4)cc23)c1F` (stereo not shown) [Example A44, 5-[4-[1-[2-[4-[4-[(2,6-Dioxopiperidin-3-yl)amino]phenyl]piperidin-1-yl]acetyl]piperidin-4-yl]phenyl]-3-[3-[[ethyl(methyl)sulfamoyl]amino]-2,6-difluorobenzoyl]-1H-pyrrolo[2,3-b]pyridine], the DC50 is 10.4 nM. For the same compound, under setting [1], the Emax was 9.52%.

`CCN(C)S(=O)(=O)Nc1ccc(F)c(C(=O)c2c[nH]c3ncc(-c4cnc(N5CCC(C(=O)NC6CCN(c7ccc(NC8CCC(=O)NC8=O)cc7F)CC6)CC5)nc4)cc23)c1F` (stereo not shown) [Example 128, N-[1-[4-[(2,6-dioxo-3-piperidyl)amino]-2-fluoro-phenyl]-4-piperidyl]-1-[5-[3-[3-[[ethyl(methyl)sulfamoyl]amino]-2,6-difluoro-benzoyl]-1H-pyrrolo[2,3-b]pyridin-5-yl]pyrimidin-2-yl]piperidine-4-carboxamide] yielded a 50% degradation concentration (DC50) of 20.9 nM. For the same compound, the maximal response (Emax) under setting [1] is 14.6%.

Compound `CCN(C)S(=O)(=O)Nc1ccc(F)c(C(=O)c2c[nH]c3ncc(-c4cnc(N5CCN(C(=O)CN6CCC(c7ccc(N(C)C8CCC(=O)NC8=O)cc7)CC6)CC5)nc4)cc23)c1F` (stereo not shown) [Example 22, 5-[2-[4-[2-[4-[4-[(2,6-dioxo-3-piperidyl)-methyl-amino]phenyl]-1-piperidyl]acetyl]piperazin-1-yl]pyrimidin-5-yl]-3-[3-[[ethyl(methyl)sulfamoyl]amino]-2,6-difluoro-benzoyl]-1H-pyrrolo[2,3-b]pyridine] yielded a DC50 of 19.4 nM. In addition, the “HiBit 24 h Emax” value under setting [1] came to 18.02%.

In turn, `O=C1CCC(Nc2ccc(C3CCN(CC(=O)N4[C@@H]5CCC[C@H]4CN(c4ccc(-c6cnc7[nH]cc(C(=O)c8c(F)ccc(NS(=O)(=O)N9CCCC9)c8F)c7c6)cn4)C5)CC3)cc2)C(=O)N1` (mixture of isomers) [Example A84, N-[2,4-Difluoro-3-[5-[6-[rac-(1R,5S)-9-[2-[4-[4-[(2,6-dioxopiperidin-3-yl)amino]phenyl]piperidin-1-yl]acetyl]-3,9-diazabicyclo[3.3.1]nonan-3-yl]pyridin-3-yl]-1H-pyrrolo[2,3-b]pyridine-3-carbonyl]phenyl]pyrrolidine-1-sulfonamide] gave a DC50 of 11 nM. Under setting [1], the maximal effect (Emax) amounted to 11%.

Take `CCN(C)S(=O)(=O)Nc1ccc(F)c(C(=O)c2c[nH]c3ncc(-c4cnc(N5CCN(C(=O)CN6CCC(c7c(F)cc(NC8CCC(=O)NC8=O)cc7F)CC6)CC5)nc4)cc23)c1F` (stereo not shown) [Example 46, 5-[2-[4-[2-[4-[4-[(2,6-dioxo-3-piperidyl)amino]-2,6-difluoro-phenyl]-1-piperidyl]acetyl]piperazin-1-yl]pyrimidin-5-yl]-3-[3-[[ethyl(methyl)sulfamoyl]amino]-2,6-difluoro-benzoyl]-1H-pyrrolo[2,3-b]pyridine]: the DC50 was found to be 9.1 nM. In addition, the Emax under setting [1] was 7.88%.

As for `CCN(C)S(=O)(=O)Nc1ccc(F)c(C(=O)c2c[nH]c3ncc(-c4ccc(N5CCN(CCN6CCC(c7ccc(OC8CCC(=O)NC8=O)cc7)CC6)CC5)nc4)cc23)c1F` (stereo not shown) [Example 144, 5-[6-[4-[2-[4-[4-[(2,6-dioxo-3-piperidyl)oxy]phenyl]-1-piperidyl]ethyl]piperazin-1-yl]-3-pyridyl]-3-[3-[[ethyl(methyl)sulfamoyl]amino]-2,6-difluoro-benzoyl]-1H-pyrrolo[2,3-b]pyridine], the DC50 came to 16.1 nM. Also, the maximum response (Emax) under setting [1] was determined as 15.6%.

`CCN(C)S(=O)(=O)Nc1ccc(F)c(C(=O)c2c[nH]c3ncc(-c4ccc(N5CCN(C(=O)CC6(O)CCN(c7ccc(NC8CCC(=O)NC8=O)cc7F)CC6)CC5)cc4C)cc23)c1F` (stereo not shown) [Example 189, 5-[4-[4-[2-[1-[4-[(2,6-dioxo-3-piperidyl)amino]-2-fluoro-phenyl]-4-hydroxy-4-piperidyl]acetyl]piperazin-1-yl]-2-methyl-phenyl]-3-[3-[[ethyl(methyl)sulfamoyl]amino]-2,6-difluoro-benzoyl]-1H-pyrrolo[2,3-b]pyridine] had a DC50 of 58.4 nM. Under setting [1], the maximal response (Emax) came out at 14.9%.

`CCN(C)S(=O)(=O)Nc1ccc(F)c(C(=O)c2c[nH]c3ncc(-c4cnc(N5CCC(NC(=O)N6CCC(c7ccc(NC8CCC(=O)NC8=O)cc7)CC6)CC5)nc4)cc23)c1F` (stereo not shown) [Example A34, 4-[4-[(2,6-Dioxopiperidin-3-yl)amino]phenyl]-N-[1-[5-[3-[3-[[ethyl(methyl)sulfamoyl]amino]-2,6-difluorobenzoyl]-1H-pyrrolo[2,3-b]pyridin-5-yl]pyrimidin-2-yl]piperidin-4-yl]piperidine-1-carboxamide;formic acid] yielded a DC50 of 79 nM. The Emax under setting [1] was determined as 25%.
